We go through one compound from publication PMC6934184, “Selective DNA-PKcs inhibition extends the therapeutic index of localized radiotherapy and chemotherapy” (The Journal of Clinical Investigation, 2019).

This assay concerns the target T1, BMX (Homo sapiens, UniProt P51813).
T1 construct: purchased Thermo Fisher Scientific (Life Technologies) SelectScreen
Put plainly: SelectScreen Z'LYTE. The class given is biochemical. In a few lines:
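Compound tested in SelectScreen activity assays, Z'LYTE for CSF1R, CDK1/cyclin B and MAP2K6 and Adapta for CAMK1. ATP for CAMK1 was listed as 10, and Km app was used for CSF1R. Results are expressed in percent.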

T1 sequence (P51813 whole entry): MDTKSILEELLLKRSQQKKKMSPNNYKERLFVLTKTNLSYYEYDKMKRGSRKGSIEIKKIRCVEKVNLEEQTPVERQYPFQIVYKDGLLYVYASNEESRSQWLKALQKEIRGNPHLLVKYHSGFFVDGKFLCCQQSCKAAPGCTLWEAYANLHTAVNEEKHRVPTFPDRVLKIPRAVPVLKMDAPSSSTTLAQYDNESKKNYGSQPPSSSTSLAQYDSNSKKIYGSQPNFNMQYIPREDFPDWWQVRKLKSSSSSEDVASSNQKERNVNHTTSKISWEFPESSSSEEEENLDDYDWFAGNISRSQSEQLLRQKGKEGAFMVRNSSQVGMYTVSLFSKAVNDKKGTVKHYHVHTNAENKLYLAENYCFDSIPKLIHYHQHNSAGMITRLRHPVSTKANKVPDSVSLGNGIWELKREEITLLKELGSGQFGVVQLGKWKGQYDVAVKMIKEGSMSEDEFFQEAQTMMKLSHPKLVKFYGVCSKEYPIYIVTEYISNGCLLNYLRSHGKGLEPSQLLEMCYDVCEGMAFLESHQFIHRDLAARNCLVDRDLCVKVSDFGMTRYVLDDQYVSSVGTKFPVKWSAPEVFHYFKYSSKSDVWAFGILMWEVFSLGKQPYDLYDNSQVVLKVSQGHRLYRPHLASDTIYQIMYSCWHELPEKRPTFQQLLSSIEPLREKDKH

As for `CN(C(=O)CN1CCOCC1)c1ccc2sc3c(-c4cccc5c(=O)cc(N6CC7CCC(C6)O7)oc45)cccc3c2c1` [NU5455], the inhibition (in general, the drop in the measured response relative to a control, in per cent) at 1 µM turned out to be 4.4%.
